Laboratory results as given in ChEMBL document CHEMBL1944566, “Conjugation of cell-penetrating peptides leads to identification of anti-HIV peptides from matrix proteins” (Bioorg Med Chem, 2012).
Values belong to the compound of their own block, whether it stands above or below them. Calls of active or inactive are those of the source. No cut-off for these calls is given here.

Columns and labels:
[1] = system: Human immunodeficiency virus 1; experiment: Antiviral activity against R5 tropic HIV1 NL(AD8) in PM1/CCR5 cells assessed as protection from virus-induced cytopathogenicity at 50 uM after 5 days by MTT assay; assay type: functional; details: Human immunodeficiency virus 1, NL(AD8), PM1/CCR5, 120 h
[2] = system: Human immunodeficiency virus 1; experiment: Antiviral activity against R5 tropic HIV1 JR-CSF in PM1/CCR5 cells assessed as protection from virus-induced cytopathogenicity measuring capsid p24 level after 5 days by ELISA; assay type: functional, cell-based; details: Human immunodeficiency virus 1, JRCSF ISOLATE, PM1/CCR5, 120 h
[3] = system: Human immunodeficiency virus 1; experiment: Antiviral activity against X4 tropic HIV1 NL4-3 in MT4 cells assessed as protection from virus-induced cytopathogenicity after 5 days by MTT assay; assay type: functional, organism-based; details: Human immunodeficiency virus 1, NL4-3, MT4, 120 h
[4] = Cytotoxicity against human MT4 cells after 5 days by MTT assay; assay type: cell-based
[5] = system: Human immunodeficiency virus 1; experiment: Antiviral activity against X4 tropic HIV1 NL4-3 in MT4 cells assessed as protection from virus-induced cytopathogenicity at 25 uM after 5 days by MTT assay; assay type: functional, organism-based
[6] = system: Human immunodeficiency virus 1; experiment: Antiviral activity against R5 tropic HIV1 JR-CSF in PM1/CCR5 cells assessed as protection from virus-induced cytopathogenicity measuring capsid p24 level at 50 uM after 5 days by ELISA; assay type: functional; details: Human immunodeficiency virus 1, JRCSF ISOLATE, PM1/CCR5, 120 h
[7] = Solubility in PBS buffer; assay type: physicochemical
[8] = system: Human immunodeficiency virus 1; experiment: Antiviral activity against R5 tropic HIV1 NL(AD8) in PM1/CCR5 cells assessed as protection from virus-induced cytopathogenicity after 5 days by MTT assay; assay type: functional, organism-based; details: Human immunodeficiency virus 1, NL(AD8), PM1/CCR5, 120 h
[9] = system: Human immunodeficiency virus 1; experiment: Antiviral activity against X4 tropic HIV1 NL4-3 in MT4 cells assessed as protection from virus-induced cytopathogenicity at 12.5 uM after 5 days by MTT assay; assay type: functional, organism-based
[10] = Aqueous solubility of the compound; assay type: physicochemical; details: buffer

SMILES: CC(=O)N[C@@H](CC(C)C)C(=O)N[C@@H](CCC(=O)O)C(=O)N[C@@H](CCCNC(=N)N)C(=O)N[C@@H](Cc1ccccc1)C(=O)N[C@@H](C)C(=O)N[C@H](C(=O)N[C@@H](CC(N)=O)C(=O)N1CCC[C@H]1C(=O)NCC(=O)N[C@@H](CC(C)C)C(=O)N[C@@H](CC(C)C)C(=O)N[C@@H](CCC(=O)O)C(=O)N[C@H](C(=O)N[C@@H](CO)C(=O)N[C@@H](CCC(=O)O)C(=O)NCC(=O)N[C@@H](CSCC(=O)N[C@@H](CCCNC(=N)N)C(=O)N[C@@H](CCCNC(=N)N)C(=O)N[C@@H](CCCNC(=N)N)C(=O)N[C@@H](CCCNC(=N)N)C(=O)N[C@@H](CCCNC(=N)N)C(=O)N[C@@H](CCCNC(=N)N)C(=O)N[C@@H](CCCNC(=N)N)C(=O)N[C@@H](CCCNC(=N)N)C(N)=O)C(N)=O)[C@@H](C)O)C(C)C
inhibition at 50 µM [1]: 42% | EC50 [2]: 42 µM | EC50 [3]: 40 µM | CC50 at 120 h [4]: > 50 µM

SMILES: CC[C@H](C)[C@H](NC(=O)[C@H](Cc1cnc[nH]1)NC(=O)[C@H](CCCCN)NC(=O)[C@H](CC(C)C)NC(=O)[C@H](CCCCN)NC(=O)[C@H](Cc1ccc(O)cc1)NC(=O)[C@H](CCC(N)=O)NC(=O)[C@H](CCC(=O)O)NC(=O)[C@H](Cc1c[nH]c2ccccc12)NC(=O)[C@H](CCCCN)NC(=O)[C@H](CC(=O)O)NC(=O)[C@H](CC(C)C)NC(=O)[C@H](CCC(=O)O)NC(=O)CNC(C)=O)C(=O)N[C@H](C(=O)NCC(=O)N[C@@H](CSCC(=O)N[C@@H](CCCNC(=N)N)C(=O)N[C@@H](CCCNC(=N)N)C(=O)N[C@@H](CCCNC(=N)N)C(=O)N[C@@H](CCCNC(=N)N)C(=O)N[C@@H](CCCNC(=N)N)C(=O)N[C@@H](CCCNC(=N)N)C(=O)N[C@@H](CCCNC(=N)N)C(=O)N[C@@H](CCCNC(=N)N)C(N)=O)C(N)=O)C(C)C
inhibition [5]: inactive | CC50 at 120 h [4]: 36 µM

SMILES: CC(=O)N[C@@H](CC(C)C)C(=O)NCC(=O)N[C@@H](CCC(N)=O)C(=O)N[C@@H](CC(C)C)C(=O)N[C@@H](CCC(N)=O)C(=O)N1CCC[C@H]1C(=O)N[C@@H](CO)C(=O)N[C@@H](CC(C)C)C(=O)N[C@@H](CCC(N)=O)C(=O)N[C@H](C(=O)NCC(=O)N[C@@H](CO)C(=O)N[C@@H](CCC(=O)O)C(=O)N[C@@H](CCC(=O)O)C(=O)N[C@@H](CC(C)C)C(=O)NCC(=O)N[C@@H](CSCC(=O)N[C@@H](CCCNC(=N)N)C(=O)N[C@@H](CCCNC(=N)N)C(=O)N[C@@H](CCCNC(=N)N)C(=O)N[C@@H](CCCNC(=N)N)C(=O)N[C@@H](CCCNC(=N)N)C(=O)N[C@@H](CCCNC(=N)N)C(=O)N[C@@H](CCCNC(=N)N)C(=O)N[C@@H](CCCNC(=N)N)C(N)=O)C(N)=O)[C@@H](C)O
inhibition at 50 µM [6]: 35% | inhibition at 50 µM [1]: 37% | EC50 [3]: 35 µM | CC50 at 120 h [4]: > 50 µM

SMILES: CC[C@H](C)[C@H](NC(=O)[C@H](CCCNC(=N)N)NC(=O)[C@H](CCC(N)=O)NC(=O)[C@H](Cc1cnc[nH]1)NC(=O)[C@@H](NC(=O)[C@H](CO)NC(=O)[C@H](Cc1ccc(O)cc1)NC(=O)[C@H](CC(C)C)NC(=O)[C@@H](NC(=O)[C@H](C)NC(=O)[C@@H](NC(=O)[C@@H](NC(C)=O)[C@@H](C)O)[C@@H](C)CC)C(C)C)C(C)C)C(=O)N[C@@H](CC(=O)O)C(=O)N[C@H](C(=O)N[C@@H](CCCCN)C(=O)NCC(=O)N[C@@H](CSCC(=O)N[C@@H](CCCNC(=N)N)C(=O)N[C@@H](CCCNC(=N)N)C(=O)N[C@@H](CCCNC(=N)N)C(=O)N[C@@H](CCCNC(=N)N)C(=O)N[C@@H](CCCNC(=N)N)C(=O)N[C@@H](CCCNC(=N)N)C(=O)N[C@@H](CCCNC(=N)N)C(=O)N[C@@H](CCCNC(=N)N)C(N)=O)C(N)=O)C(C)C
solubility [7]: soluble | EC50 [2]: 0.58 µM | EC50 [3]: 2.1 µM | EC50 [8]: 0.43 µM | CC50 at 120 h [4]: 5.7 µM

SMILES: CC[C@H](C)[C@H](NC(=O)[C@H](CCCCN)NC(=O)[C@H](CC(=O)O)NC(=O)[C@H](CC(C)C)NC(=O)[C@H](C)NC(=O)[C@H](CCC(=O)O)NC(=O)[C@H](CCCCN)NC(=O)[C@@H](NC(=O)[C@H](CC(=O)O)NC(=O)[C@H](CCCCN)NC(=O)[C@@H](NC(=O)[C@H](CC(=O)O)NC(=O)[C@@H](NC(=O)[C@H](CCCNC(=N)N)NC(C)=O)[C@@H](C)CC)C(C)C)[C@@H](C)O)C(=O)N[C@@H](CCC(=O)O)C(=O)NCC(=O)N[C@@H](CSCC(N)=O)C(N)=O
inhibition [9]: inactive | CC50 at 120 h [4]: 17 µM

solubility [10]: Insoluble
SMILES: CC[C@H](C)[C@H](NC(=O)[C@@H](NC(=O)[C@H](CC(N)=O)NC(=O)[C@H](Cc1ccc(O)cc1)NC(=O)[C@H](CC(C)C)NC(=O)[C@H](CO)NC(=O)[C@H](CCCNC(=N)N)NC(=O)[C@H](CC(C)C)NC(=O)[C@H](CCC(=O)O)NC(=O)[C@H](CCC(=O)O)NC(=O)[C@H](CO)NC(=O)CNC(C)=O)[C@@H](C)O)C(=O)N[C@@H](C)C(=O)N[C@H](C(=O)N[C@@H](CC(C)C)C(=O)NCC(=O)N[C@@H](CSCC(N)=O)C(N)=O)C(C)C
EC50 [3]: > 50 µM | CC50 at 120 h [4]: > 50 µM
